Read-outs that look alike come from different tables or passages of the source.
Tests used:
[1] = tested on: 2008 cells; assay: Growth inhibition of ovarian carcinoma cells (MTS); format: cell-based, human
[2] = tested on: MDA-MB231 cells; assay: Growth inhibition of breast carcinoma cells (MTS); format: cell-based, human
[3] = tested on: PC-3 cells; assay: Growth inhibition of prostate carcinoma cells (MTS); format: cell-based, human
[4] = target: tubulin (colchicine site); assay: Inhibition of [3H]colchicine binding to tubulin; design: species or system bovine; settings: for IC50: 5 μM [3H]colchicine, 1 μM tubulin; for Percent Colchicine Binding Inhibition (CBI), 1 μM: 1 μM compound; for Percent Colchicine Binding Inhibition (CBI), 5 μM: 5 μM compound; for Percent Colchicine Binding Inhibition (CBI), 50 μM: 50 μM compound
Method: Assays to determine whether 15mix-17mix inhibited binding of [^3H]colchicine to tubulin at both 30° C. and 37° C. were performed. This was accomplished using methods described previously. Kang, G.-J.; Getahun, Z.; Muzaffar, A.; Brossi, A.; Hamel, E. J. Biol. Chem. 1990, 265, 10255; Verdier-Pinard, P.; Lai, J.-Y.; Yoo, H.-D.; Yu, J.; Marquez, B.; Nagle, D. G.; Nambu, M.; White, J. D.; Falck, J. R.; Gerwick, W. H.; Day, B. W.; Hamel, E. Mol. Pharmacol. 1998, 53, 62. Briefly, 5 μM [^3H]colchicine (2.3 TBq/mmol), drug (1, 5, 10, 50, or 250 μM), or vehicle (DMSO, 5% v/v) were incubated at 30° C. for 15 minutes or at 37° C. for 10 minutes with 1 μM tubulin in the presence of 1 M monosodium glutamate, 0.1 M glucose-1-phosphate, 1 mM MgCl2, 1 mM GTP, and 0.5 mg/mL bovine serum albumin. The solutions were filtered through two stacks of DEAE-cellulose filters and the radioactivity in the filtrate was determined by scintillation spectrometry. Each series of determinations included positive controls of 1, 5, and/or 50 μM curacin A.

[5] = tested on: isolated bovine brain tubulin; assay: Inhibition of GTP/glutamate-induced tubulin polymerization (turbidimetric, 30° C.); format: biochemical; settings: for IC50: read-out: 50% Tubulin Polymerization Inhibition Concentration (TPI) IC50, 30° C., 10 μM tubulin; for Percent Tubulin Polymerization Inhibition (TPI), 5 μM: 5 μM compound
[6] = Homo sapiens, Ovarian carcinoma cell, 48 h, read-out: GI50 2008 (48 h)
[7] = Homo sapiens, MDA-MB-231, 48 h, read-out: GI50 MDA-MB231 (48 h)
[8] = Homo sapiens, PC-3, 48 h, read-out: GI50 PC-3 (48 h)
[9] = incubation at 30° C. for 15 minutes, read-out: 50% Colchicine Binding Inhibitory Concentration (CBI), 30° C.
[10] = incubation at 37° C. for 10 minutes, read-out: 50% Colchicine Binding Inhibitory Concentration (CBI), 37° C.
[11] = 96 h, Table II prints no unit, read-out: GI50 2008 96 h
[12] = read-out: GI50 2008 48 h, 48 h, Table II prints no unit
[13] = 96 h, Table II prints no unit, read-out: GI50 MDA 96 h
[14] = read-out: GI50 MDA 48 h, 48 h, Table II prints no unit
[15] = 96 h, Table II prints no unit, read-out: GI50 PC3 96 h
[16] = read-out: GI50 PC3 48 h, 48 h, Table II prints no unit

| Compound | GI50 [1, 6] | GI50 [2, 7] | GI50 [3, 8] | IC50 [4, 9] | IC50 [4, 10] | IC50 [5] | GI50 [1, 11] | GI50 [1, 12] | GI50 [2, 13] | GI50 [2, 14] | GI50 [3, 15] | GI50 [3, 16] | Percent Colchicine Binding Inhibition (CBI), 1 μM [4] | Percent Colchicine Binding Inhibition (CBI), 5 μM [4] | Percent Colchicine Binding Inhibition (CBI), 50 μM [4] | Percent Tubulin Polymerization Inhibition (TPI), 5 μM [5] |
| --- | --- | --- | --- | --- | --- | --- | --- | --- | --- | --- | --- | --- | --- | --- | --- | --- |
| COc1cc(C=CCCC=CC=C(C)CCC(O)c2ccco2)cc(OC)c1OC (stereo not drawn) [Compound 17a, (4E,1E,10Z)-11-(3,4,5-Trimethoxyphenyl)-4-methyl-1-furan-2-ylundeca-4,6,10-trien-1-ol] | 2.7 ± 1 µM | 0.69 ± 0.1 µM | 8 ± 4 µM | 32 ± 4 µM | 9 ± 6 µM | 0.9 µM | – | – | – | – | – | – | – | – | – | – |
| COc1ccccc1C(O)CCC(C)=CC=CCCC=Cc1cc(OC)c(OC)c(OC)c1 (stereo not drawn) [Compound 17d, (4E,6E,10Z)-11-(3,4,5-Trimethoxyphenyl)-4-methyl-1-(2-methoxy-phenyl)-2-ylundeca-4,6,10-trien-1-ol] | 0.33 ± 0.02 µM | 0.34 ± 0.03 µM | 0.62 ± 0.2 µM | 9 ± 5 µM | 9 ± 4 µM | 1.2 µM | – | – | – | – | – | – | – | – | – | – |
| COc1ccc(OC)c(C(O)CCC(C)=CC=CCCC=Cc2cc(OC)c(OC)c(OC)c2)c1 (stereo not drawn) [Compound 17f, (4E,6E,10Z)-11-(3,4,5-Trimethoxyphenyl)-4-methyl-1-(2,5-dimethoxy-phenyl)-2-ylundeca-4,6,10-trien-1-ol] | 22 ± 5 µM | 9.7 ± 1 µM | > 50 µM | > 50 µM | > 50 µM | > 50 µM | – | – | – | – | – | – | – | – | – | – |
| COc1ccc(/C=C\CC/C=C/C=C(\C)CCC(O)c2ccco2)c(OC)c1 (stereo not drawn) [Compound 19AR1] | – | – | – | – | – | – | 19.1 ± 3.1 µM | 20.2 ± 2 µM | 3.26 ± 6.13 µM | 26.8 ± 0.9 µM | > 50 µM | > 50 µM | −4.6 ± 8.5% | −2.2 ± 8.2% | 13.2 ± 12.7% | 81.7% |
| COc1ccc(/C=C\CC/C=C/C=C(\C)CCC(O)c2cccs2)c(OC)c1 (stereo not drawn) [Compound 19AR2] | – | – | – | – | – | – | 25.9 ± 2.1 µM | 23.8 ± 1.1 µM | 7.18 ± 4.67 µM | 24 ± 1.2 µM | 37.3 ± 6.5 µM | > 50 µM | −0.7 ± 7.5% | −2.7 ± 6.5% | −31.7 ± 7.8 % | 51.8% |
| COc1ccc(/C=C\CC/C=C/C=C(\C)CCC(O)c2cc3ccccc3o2)c(OC)c1 (stereo not drawn) [Compound 19AR3] | – | – | – | – | – | – | 17.7 ± 2.7 µM | 12.2 ± 2.7 µM | 6.43 ± 7.42 µM | 42.1 ± 1.4 µM | 49.1 ± 8.9 µM | > 50 µM | 0.7 ± 16.2% | −50.0 ± 12.7 % | −29.0 ± 9.2 % | 60.4% |
| COc1ccc(/C=C\CC/C=C/C=C(\C)CCC(O)c2cc3ccccc3s2)c(OC)c1 (stereo not drawn) [Compound 19AR4] | – | – | – | – | – | – | 26.9 ± 3 µM | 29.8 ± 1.4 µM | 18.6 ± 3 µM | > 50 µM | > 50 µM | > 50 µM | 1.4 ± 18.5% | −41.0 ± 17.8 % | −26.4 ± 14.7 % | 60.5% |
| COc1ccc(/C=C\CC/C=C/C=C(\C)CCC(O)c2ccccc2OC)c(OC)c1 (stereo not drawn) [Compound 19AR5] | – | – | – | – | – | – | 24.2 ± 3.9 µM | 30.8 ± 8.7 µM | 15.3 ± 9.8 µM | > 50 µM | > 50 µM | > 50 µM | −3.4 ± 3.2% | −17.4 ± 7.9 % | −26.1 ± 11.5 % | 34.2% |
| COc1ccc(/C=C\CC/C=C/C=C(\C)CCC(O)c2cc(OC)ccc2OC)c(OC)c1 (stereo not drawn) [Compound 19AR6] | – | – | – | – | – | – | 32.9 ± 3.7 µM | 35.2 ± 2.4 µM | 18.3 ± 13.6 µM | 39.3 ± 11.3 µM | > 50 µM | > 50 µM | 1.7 ± 13.9% | −6.8 ± 13.1% | −22.8 ± 8.9 % | 31.2% |
